In experiment [1] the target is T1, zMiga2 (Danio rerio, UniProt Q5BLE2, V430W/F488W).
T1 construct: gene miga2; LD targeting domain, residues 310-568; E. coli BL21(DE3); His6 tag cleaved by TEV
T1 sequence (Q5BLE2 310-568 V430W/F488W): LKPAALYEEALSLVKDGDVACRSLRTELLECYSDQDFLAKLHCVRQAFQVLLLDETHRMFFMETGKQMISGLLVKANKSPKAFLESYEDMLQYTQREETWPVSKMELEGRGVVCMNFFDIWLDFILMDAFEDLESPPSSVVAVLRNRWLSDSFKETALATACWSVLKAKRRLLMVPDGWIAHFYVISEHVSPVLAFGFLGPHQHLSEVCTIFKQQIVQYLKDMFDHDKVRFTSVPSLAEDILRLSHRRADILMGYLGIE
In words: Clear Native-PAGE, NBD fluorescence. The class given is binding. The conditions noted are these: labelled compound; pH 7.5, on ice, 2 h.

For experiment [2], the target named is T2, zMiga2 (Danio rerio, UniProt Q5BLE2, V430W).
T2 construct: gene miga2; LD targeting domain, residues 310-568; E. coli BL21(DE3); His6 tag cleaved by TEV
T2 sequence (Q5BLE2 310-568 V430W): T1 sequence (Q5BLE2 310-568 V430W/F488W) with W179F
In words: Clear Native-PAGE, NBD fluorescence. It counts as binding. The conditions noted are these: labelled compound; pH 7.5, on ice, 2 h.

The target in another experiment is T3, mMIGA1^313–573 (Mus musculus, UniProt Q4QQM5).
T3 construct: gene Miga1; LD targeting domain, residues 313-573; E. coli; His6 tag cleaved by TEV
T3 sequence (Q4QQM5 313-573): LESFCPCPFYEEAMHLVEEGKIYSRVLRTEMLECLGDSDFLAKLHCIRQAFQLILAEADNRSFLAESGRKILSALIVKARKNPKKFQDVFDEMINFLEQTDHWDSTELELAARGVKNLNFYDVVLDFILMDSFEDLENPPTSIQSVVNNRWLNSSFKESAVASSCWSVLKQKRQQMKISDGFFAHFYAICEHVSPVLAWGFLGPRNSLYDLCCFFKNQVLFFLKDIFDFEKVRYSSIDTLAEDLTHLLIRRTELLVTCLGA
In words: Clear Native-PAGE, NBD fluorescence. It counts as binding. The conditions noted are these: labelled compound; pH 7.5, on ice, 2 h.

For experiment [3], the target named is T4, zMiga2 (Danio rerio, UniProt Q5BLE2).
T4 construct: gene miga2; LD targeting domain, residues 310-568; E. coli BL21(DE3); His6 tag cleaved by TEV
T4 sequence (Q5BLE2 310-568): T1 sequence (Q5BLE2 310-568 V430W/F488W) with W121V, W179F
In words: Clear Native-PAGE, NBD fluorescence. It counts as binding. Particulars: labelled compound; pH 7.5, on ice, 2 h; hydrophobic cavity.

Experiment [4] deals with T5, zMiga2 (Danio rerio, UniProt Q5BLE2, F488W).
T5 construct: gene miga2; LD targeting domain, residues 310-568; E. coli BL21(DE3); His6 tag cleaved by TEV
T5 sequence (Q5BLE2 310-568 F488W): T1 sequence (Q5BLE2 310-568 V430W/F488W) with W121V
In words: Clear Native-PAGE, NBD fluorescence. It counts as binding. Particulars: labelled compound; pH 7.5, on ice, 2 h.

Experiment [5] concerns the target T6, zMiga2 (Danio rerio, UniProt Q5BLE2, W409A).
T6 construct: gene miga2; LD targeting domain, residues 310-568; E. coli BL21(DE3); His6 tag cleaved by TEV
T6 sequence (Q5BLE2 310-568 W409A): T1 sequence (Q5BLE2 310-568 V430W/F488W) with W100A, W121V, W179F
In words: Clear Native-PAGE, NBD fluorescence. It counts as binding. The conditions noted are these: labelled compound; pH 7.5, on ice, 2 h.

The next experiment concerns the target T7, zMiga2-GST (Danio rerio, UniProt Q5BLE2).
T7 construct: gene miga2; LD targeting domain, residues 310-568, C-terminal GST fusion kept; E. coli
T7 sequence (Q5BLE2 310-568): T1 sequence (Q5BLE2 310-568 V430W/F488W) with W121V, W179F
In words: preloading, glutathione bead wash, Clear Native-PAGE fluorescence. The class given is binding. The conditions noted are these: labelled compound; probe of the displacement assay.

The target of experiment [6] is T8, MSP domain of mouse VAPB (residues 1-125), K87L/K118L (mouse (Mus musculus), UniProt Q9QY76 1-125, K87L | K118L).
T8 construct: vesicle-associated membrane protein-associated protein B/C (VAPB), mouse, MSP domain, residues 1-125, K87L/K118L; also called mVAPB K87L/K118L
In words: ITC; Microcal ITC200, 25 °C, buffer C (25 mM Tris-HCl pH 7.5, 150 mM NaCl, 4 mM β-mercaptoethanol); 20 injections of 2 μl; 1:1 binding model. The conditions noted are these: both partners purified.

Experiment [7] deals with T9, MSP domain of mouse VAPB (residues 1-125) (mouse (Mus musculus), UniProt Q9QY76 1-125).
T9 construct: vesicle-associated membrane protein-associated protein B/C (VAPB), mouse, MSP domain, residues 1-125; In the liposome clustering (DLS) and tethered lipid transfer assays a His-tagged form (His-mVAPB) was used; also called mVAPB; wild-type mVAPB
The description is as above. The conditions noted are these: both partners purified.

The target in experiment [8] is T10, MSP domain of mouse VAPB (residues 1-125), K43L/K45L (mouse (Mus musculus), UniProt Q9QY76 1-125, K43L | K45L).
T10 construct: vesicle-associated membrane protein-associated protein B/C (VAPB), mouse, MSP domain, residues 1-125, K43L/K45L; also called mVAPB K43L/K45L
The description is as above. Particulars: both partners purified.

As usually defined, the Kd is the equilibrium constant for the complex coming apart. The low end stands for higher affinity, the high end for lower affinity.

Where a chain is given by its changes, count along the chain named. [ ]: non-standard residue; d: D form. pS = N[C@@H](COP(=O)(O)O)C(=O)O

T10 sequence (Q9QY76 1-125 K43L/K45L): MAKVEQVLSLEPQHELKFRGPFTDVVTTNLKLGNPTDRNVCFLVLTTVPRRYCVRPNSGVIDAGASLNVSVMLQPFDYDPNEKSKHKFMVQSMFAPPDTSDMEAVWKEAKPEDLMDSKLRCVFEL
T8 sequence (Q9QY76 1-125 K87L/K118L): as the sequence (Q9QY76 1-125 K43L/K45L) above, with L43K, L45K, K87L, K118L counted along it
T9 sequence (Q9QY76 1-125): as the sequence (Q9QY76 1-125 K43L/K45L) above, with L43K, L45K counted along it

For `CCCCCCCC/C=C\CCCCCCCC(=O)OC[C@H](COP(=O)(O)OCCNc1ccc([N+](=O)[O-])c2nonc12)OC(=O)CCCCCCC/C=C\CCCCCCCC` [NBD-PE, 1,2-dioleoyl-sn-glycero-3-phosphoethanolamine-N-(7-nitro-2-1,3-benzoxadiazol-4-yl)], the “lipid binding relative to WT” value on zMiga2 [1] is reported as “double mutant showed decreased lipid-binding that was less than half of that of the wild type”; on zMiga2 [2] it was “the V430W or F488W single mutant showed a slight decrease in NBD-PE binding”; on zMiga2 [4], “the V430W or F488W single mutant showed a slight decrease in NBD-PE binding”. The “Clear Native-PAGE, NBD fluorescence” value on mMIGA1^313–573 is recorded as “NBD-PE binding by MIGA1 was markedly lower than that by MIGA2”; at zMiga2 [3], “explored the ability of the mutant proteins to interact with NBD-PE”. For the same molecule, the “NBD-PE binding relative to WT” value on zMiga2 [5] is on record as ~ 2 fold.

For `CCCCCCCCCCCCCCCC(=O)OC[C@H](COP(=O)([O-])OCC[N+](C)(C)C)OC(=O)CCCCCCCCCCCNc1ccc([N+](=O)[O-])c2nonc12` [NBD-PC, 1-palmitoyl-2-{12-[(7-nitro-2-1,3-benzoxadiazol-4-yl)amino]dodecanoyl}-sn-glycero-3-phosphocholine], the “preloading, glutathione bead wash, Clear Native-PAGE fluorescence” value at zMiga2-GST is “The NBD-PC bound zMiga2 was incubated with natural lipids across a range of concentrations”.

B1: phosphorylated FFAT motif peptide of mouse MIGA2 (residues 289-298) (peptide)
peptide: Ac-SED[pS]FF[pS]ATE-NH2
SMILES: CC(=O)N[C@@H](CO)C(=O)N[C@@H](CCC(=O)O)C(=O)N[C@@H](CC(=O)O)C(=O)N[C@@H](COP(=O)(O)O)C(=O)N[C@@H](Cc1ccccc1)C(=O)N[C@@H](Cc1ccccc1)C(=O)N[C@@H](COP(=O)(O)O)C(=O)N[C@@H](C)C(=O)N[C@H](C(=O)N[C@@H](CCC(=O)O)C(N)=O)[C@@H](C)O
notes: also called mMIGA2^pFFAT; phosphorylated FFAT peptide; source: synthetic peptide, purified by HPLC
As to B1, the “fold lower binding affinity than wild type mVAPB” value in [6] worked out at 3 fold; in experiment [8], 5 fold. Also, in experiment [7], binding was characterised by a dissociation constant (Kd) of 1700 ± 200 nM.

(Values after PMC9239997, “Structural basis for mitoguardin-2 mediated lipid transport at ER-mitochondrial membrane contact sites” (Nature Communications, 2022).)
